Results taken from paper PMC12080345 (Journal of medicinal chemistry, 2023).

Test: Acute toxicity assay in mice
Assay type: in vivo
Settings: 200 mg/kg

Q: For COc1cc(Cn2ccc3cc(C(=O)NCC45C[C@H]6C[C@@H](C4)C[C@@H](C5)C6)ccc32)ccc1C(=O)NO [4e, N-(((3r,5r,7r)-Adamantan-1-yl)methyl)-1-(4-(hydroxycarbamoyl)-3-methoxybenzyl)-1H-indole-5-carboxamide], which adverse effect is on record?
A: Its adverse effect is “no observed adverse effect”.
